Data from US20080279775A1, “Benztropinamine Analogs as Dopamine Uptake Inhibitors” (priority 2005, published 2008).
Where a name gives a salt, the structure may show the parent alone. Read-outs that look alike come from different tables or passages of the source.

Columns and labels:
DAT = target: T1, DAT (Rattus norvegicus, UniProt P23977); assay: Dopamine transporter binding assay, displacement of [3H]WIN 35,428; conditions: for Reduction of binding affinity at the DAT compared to 2a: lower affinity than 2a; for Ki: rat caudate-putamen membranes, read-out: DAT [3H]WIN 35,428 Ki ± SEM
T1 construct: their brains removed to an ice-cooled dish for dissection of the caudate putamen; from tissue; host or cells: rat caudate putamen membranes (fresh homogenates)
T1 sequence (P23977 whole entry): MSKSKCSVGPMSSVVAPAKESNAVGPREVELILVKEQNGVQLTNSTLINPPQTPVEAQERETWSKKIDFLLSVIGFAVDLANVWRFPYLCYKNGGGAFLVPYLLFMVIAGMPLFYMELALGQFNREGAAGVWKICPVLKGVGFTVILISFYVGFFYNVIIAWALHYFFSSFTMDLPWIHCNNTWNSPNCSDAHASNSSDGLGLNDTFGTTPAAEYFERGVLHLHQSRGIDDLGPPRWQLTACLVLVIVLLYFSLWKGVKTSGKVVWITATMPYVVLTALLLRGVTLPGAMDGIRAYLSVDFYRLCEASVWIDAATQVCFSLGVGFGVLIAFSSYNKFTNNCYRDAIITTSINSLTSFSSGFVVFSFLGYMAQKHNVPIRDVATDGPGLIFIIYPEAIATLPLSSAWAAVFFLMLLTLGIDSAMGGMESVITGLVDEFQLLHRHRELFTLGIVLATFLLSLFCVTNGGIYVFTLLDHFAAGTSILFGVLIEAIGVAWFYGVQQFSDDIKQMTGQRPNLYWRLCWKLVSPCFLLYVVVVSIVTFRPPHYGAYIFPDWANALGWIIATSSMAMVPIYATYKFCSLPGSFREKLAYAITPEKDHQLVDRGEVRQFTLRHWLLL

SERT = target: T2, SERT (Rattus norvegicus, UniProt P31652); assay: [3H]Citalopram binding assay; conditions: for Binding selectivity SERT/DAT: Ki ratio
T2 construct: Membranes from frozen rat midbrain were homogenized; from tissue; host or cells: frozen rat midbrain membranes
T2 sequence (P31652 whole entry): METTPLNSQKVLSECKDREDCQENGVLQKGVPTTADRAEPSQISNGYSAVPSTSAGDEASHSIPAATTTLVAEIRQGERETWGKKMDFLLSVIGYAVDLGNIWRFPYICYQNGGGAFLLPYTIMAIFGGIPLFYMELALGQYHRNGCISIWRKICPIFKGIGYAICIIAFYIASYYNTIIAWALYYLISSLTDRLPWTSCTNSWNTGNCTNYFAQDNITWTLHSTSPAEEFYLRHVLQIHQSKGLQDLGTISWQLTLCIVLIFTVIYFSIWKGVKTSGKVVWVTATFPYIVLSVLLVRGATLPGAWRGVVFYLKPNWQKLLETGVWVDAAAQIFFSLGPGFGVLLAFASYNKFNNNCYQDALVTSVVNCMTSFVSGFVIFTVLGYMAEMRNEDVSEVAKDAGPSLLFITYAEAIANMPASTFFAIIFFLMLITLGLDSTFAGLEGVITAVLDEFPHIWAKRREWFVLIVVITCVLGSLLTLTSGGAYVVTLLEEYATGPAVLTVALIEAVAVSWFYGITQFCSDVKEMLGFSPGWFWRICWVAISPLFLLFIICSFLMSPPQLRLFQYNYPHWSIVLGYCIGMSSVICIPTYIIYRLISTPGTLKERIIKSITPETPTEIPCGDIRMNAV
Protocol: (§1) In order to understand the neurochemical and behavioral properties of the compounds of the present invention, exemplary benztropinamine analogs were evaluated for displacement of [^3H]WIN 35,428 (2β-carbomethoxy-3β-(4-fluorophenyl)tropane) binding to the DAT in rat caudate-putamen. These benztropinamine analogs were also evaluated for displacement of radiolabeled ligand binding at the serotonin (SERT) and norepinephrine (NET) transporters as well as the muscarinic m1 receptor (M1), Table 1, infra. The NET over DAT selectivity refers to the Ki ratio. When the Ki ratio is greater than 1, the compound is DAT selective. The DAT selectivities of the analogs over these binding sites are depicted in Table 2.
[^3H]Citalopram Binding Assay. Membranes from frozen rat midbrain were homogenized in 20 volumes (w/v) of 50 mM Tris containing 120 mM NaCl and 5 mM KCl (pH 7.4 at 25° C.), using a Brinkman Polytron (at setting 6 for 20 sec). The tissue was centrifuged at 20,000×g for 10 min at 4° C. The resulting pellet was resuspended in buffer and recentrifuged. The final pellet was resuspended in cold buffer to a concentration of 15 mg/ml (original wet weight). Ligand binding experiments were conducted in assay tubes containing 0.5 ml of buffer, 1.4 nM [^3H]citalopram (New England Nuclear, Boston Mass.), and 1.5 mg midbrain tissue. The reaction was started with the addition of the tissue and the tubes were incubated for 60 min at 25° C. (room temperature). The incubation was terminated by rapid filtration through Whatman GF/B filters (presoaked in 0.3% polyethylenimine in water) using a Brandel Cell Harvester (Brandel Instruments Gaithersburg, Md.). The filters were washed twice with 5 ml cold buffer, transferred to scintillation vials to which Beckman Ready Safe was added. Nonspecific binding was determined using 10 μM fluoxetine (RBI, Natick, Mass.). Data were analyzed using GraphPad Prism software (San Diego, Calif.).

muscarinic M1 receptor = target: T3, muscarinic M1 receptor (Rattus norvegicus, UniProt P08482); assay: [3H]Pirenzepine binding assay; conditions: for Binding selectivity M1/DAT: Ki ratio; for Lower binding affinity at the M1 receptor compared to 2a: lower affinity than 2a
T3 construct: Membranes from frozen rat brains excluding cerebellum were thawed in ice-cold buffer; from tissue; host or cells: frozen rat brain (excluding cerebellum) membranes
T3 sequence (P08482 1-460): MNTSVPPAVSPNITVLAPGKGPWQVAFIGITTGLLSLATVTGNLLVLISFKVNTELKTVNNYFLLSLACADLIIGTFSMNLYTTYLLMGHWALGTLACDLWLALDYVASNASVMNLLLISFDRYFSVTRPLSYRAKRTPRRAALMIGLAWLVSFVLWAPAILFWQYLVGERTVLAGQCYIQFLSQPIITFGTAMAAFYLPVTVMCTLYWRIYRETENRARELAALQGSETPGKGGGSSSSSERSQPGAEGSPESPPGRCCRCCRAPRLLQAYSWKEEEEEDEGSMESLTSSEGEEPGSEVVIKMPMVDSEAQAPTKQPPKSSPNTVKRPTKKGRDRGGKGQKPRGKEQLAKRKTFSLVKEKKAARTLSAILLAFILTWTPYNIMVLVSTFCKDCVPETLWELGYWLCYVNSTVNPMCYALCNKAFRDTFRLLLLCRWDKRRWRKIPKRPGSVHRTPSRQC
Protocol: as §1, with “When the Ki ratio is greater than 1, the compound is DAT selective.” left out
[…] Binding Assay. Membranes from frozen rat brains excluding cerebellum were thawed in ice-cold buffer (10 mM Tris-HCl, 320 mM sucrose, pH 7.4) and homogenized with a Brinkman polytron in a volume of 10 ml/gm of tissue. The homogenate was centrifuged at 1,000×g for 10 min at 4° C. The resulting supernatant was then centrifuged at 10,000×g for 20 min at 4° C. The resulting pellet was resuspended in a volume of 200 mg/ml in 10 mM Tris buffer (pH 7.4). Ligand binding assays were conducted in tubes containing 0.5 ml of buffer (10 mM Tris-HCl, 5 mM MgCl2), 3 nM [^3H]pirenzepine (New England Nuclear, Boston, Mass.), and 20 mg of brain tissue. The reaction was started with the addition of the tissue and the tubes were incubated for 60 min in a 37° C. water bath. The incubation was terminated by the addition of 5 ml of ice-cold buffer (10 mM Tris-HCl, pH 7.4) and rapid filtration through Whatman GF/B glass fiber filter paper (presoaked in 0.5% polyethylenimine) using a Brandel Cell Harvester (Brandel Instruments, Gaithersburg, Md.). The filters were washed twice with 5 ml cold buffer, and transferred to scintillation vials to which absolute ethanol and Beckman Ready Safe was added. Quinuclidinyl benzilate (QNB), 100 μM final concentration, was used to determine non-specific binding. Data were analyzed by using GraphPad Prism software (San Diego, Calif.).

NET [1] = target: NET (Rattus norvegicus, UniProt Q63380); type: binding
Sequence of NET (Rattus norvegicus, UniProt Q63380) (Q63380 1-617): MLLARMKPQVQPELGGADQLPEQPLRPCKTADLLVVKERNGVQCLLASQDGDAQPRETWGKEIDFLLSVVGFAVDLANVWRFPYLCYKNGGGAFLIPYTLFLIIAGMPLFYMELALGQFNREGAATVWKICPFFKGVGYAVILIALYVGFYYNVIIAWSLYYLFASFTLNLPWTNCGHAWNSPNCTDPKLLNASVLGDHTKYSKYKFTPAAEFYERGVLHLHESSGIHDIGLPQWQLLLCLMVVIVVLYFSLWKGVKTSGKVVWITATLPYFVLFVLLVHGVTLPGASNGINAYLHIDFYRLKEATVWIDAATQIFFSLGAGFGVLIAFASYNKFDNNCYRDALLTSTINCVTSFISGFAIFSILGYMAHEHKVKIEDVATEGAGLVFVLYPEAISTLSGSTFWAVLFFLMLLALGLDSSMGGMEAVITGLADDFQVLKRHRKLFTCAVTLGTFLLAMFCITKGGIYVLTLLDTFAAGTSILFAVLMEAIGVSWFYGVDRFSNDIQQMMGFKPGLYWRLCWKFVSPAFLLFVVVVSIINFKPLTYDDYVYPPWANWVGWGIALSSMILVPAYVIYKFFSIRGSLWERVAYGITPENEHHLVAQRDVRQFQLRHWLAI
Protocol: as §1
(§2) [^3H]Nisoxetine Binding Assay. Membranes from frozen frontal cortex dissected from male Sprague-Dawley rats (Taconic Labs, Germantown, N.Y.) were homogenized in 20 volumes (w/v) of 50 mM Tris containing 120 mM NaCl and 5 mM KCl (pH 7.4 at 25° C.), using a Brinkman Polytron (at setting 6 for 20 sec). The tissue was centrifuged at 50,000×g for 10 min at 4° C. The resulting pellet was resuspended in buffer and recentrifuged. The final pellet was resuspended in cold buffer to a concentration of 80 mg/ml (original wet weight). Ligand binding experiments were conducted in assay tubes containing 0.5 ml buffer, 0.5 nM [3H]nisoxetine (New England Nuclear, Boston, Mass.), and 8 mg frontal cortex tissue. The reaction was started with the addition of the tissue and the tubes were incubated for 60 min at 0-4° C. The incubation was terminated by rapid filtration through Whatman GF/B filters, presoaked in 0.05% polyethylenimine, using a Brandel Cell Harvester (Brandel Instruments Gaithersburg, Md.). The filters were washed twice with 5 ml cold buffer, transferred to scintillation vials to which Beckman Ready Safe was added. Nonspecific binding was determined using 1 μM desipramine. Data were analyzed using GraphPad Prism software (San Diego, Calif.).

NET [2] = type: binding, rat; conditions: for Binding selectivity NET/DAT: Ki ratio
Protocol: as §1, §2

mice = assay: Locomotor stimulant effects (activity counts per minute); type: in vivo; conditions: injected, at the most effective dose, FIG. 2
Text: In contrast, 2m produced much more modest increases in activity of around 100 counts per min.

[3] = rat midbrain membranes, read-out: SERT [3H]citalopram Ki ± SEM
[4] = rat brain membranes excluding cerebellum, read-out: M1 [3H]pirenzepine Ki ± SEM

SMILES | Ki (SERT; [3]) [nM] | Ki (muscarinic M1 receptor; [4]) [nM] | Ki (DAT) [nM] | Binding selectivity SERT/DAT (SERT) | Binding selectivity NET/DAT (NET [2]) | Binding selectivity M1/DAT (muscarinic M1 receptor) | further results
Fc1ccc(C(N[C@H]2C[C@H]3CC[C@@H](C2)N3CCc2c[nH]c3ccccc23)c2ccc(F)cc2)cc1 [Compound 2l] | 347 ± 41.3 | 413 ± 6.55 | – | – | – | – | Reduction of binding affinity at the DAT compared to 2a (DAT): 6 fold
CN1[C@@H]2CC[C@H]1C[C@H](NC(c1ccc(F)cc1)c1ccc(F)cc1)C2 [Compound 2b] | – | – | 661 ± 35 | 73 | 23 | 0.1 | Reduction of binding affinity at the DAT compared to 2a (DAT): 58 fold; Ki (SERT): 48500 ± 6370 nM; Ki (NET [1]; read-out: NET [3H]nisoxetine Ki ± SEM, rat frontal cortex membranes): 15200 ± 1230 nM; Ki (muscarinic M1 receptor): 59.4 ± 7.3 nM
CN1[C@@H]2CC[C@H]1C[C@@H](NC(c1ccc(Cl)c(Cl)c1)c1ccc(Cl)c(Cl)c1)C2 [Compound 2f] | 3010 ± 332 | 17.8 ± 2.27 | 5.35 ± 0.25 | 563 | 48 | 3 | Higher binding affinity at the DAT compared to 2a (DAT; higher affinity than 2a): 2 fold; Reduction of NET over DAT selectivity compared to 2a (NET [2]; compared to 2a): 3 fold
Fc1ccc(C(N[C@H]2C[C@H]3CC[C@@H](C2)N3CCCCc2ccccc2)c2ccc(F)cc2)cc1 [Compound 2j] | 502 ± 68.1 | 438 ± 56.2 | 11.7 ± 0.39 | 43 | 139 | 37 | –
CCCCN1[C@@H]2CC[C@H]1C[C@@H](NC(c1ccc(F)cc1)c1ccc(F)cc1)C2 [Compound 2i] | 2640 ± 27.6 | 454 ± 36.7 | 21.5 ± 2.31 | 123 | 136 | 21 | –
CN1[C@@H]2CC[C@H]1C[C@@H](NC(c1ccc(Cl)cc1)c1ccc(Cl)cc1)C2 [Compound 2d] | 4180 ± 623 | 50 ± 7.1 | – | – | – | – | Reduction of binding affinity at the DAT compared to 2a (DAT): around 3 fold
NCCN1[C@@H]2CC[C@H]1C[C@@H](NC(c1ccc(F)cc1)c1ccc(F)cc1)C2 [Compound 2k] | – | 2110 ± 119 | 12.5 ± 1.73 | – | – | – | Lower binding affinity at the M1 receptor compared to 2a (muscarinic M1 receptor): 170 fold
CN1[C@@H]2CC[C@H]1C[C@@H](NC(c1ccc(F)cc1)c1ccc(F)cc1)C2 [Compound 2a] | 8680 ± 436 | 7.81 ± 1.17 | 11.3 ± 1.61 | 769 | 160 | 0.7 | –
CN1[C@@H]2CC[C@H]1C[C@@H](NC(c1ccccc1)c1ccc(Cl)cc1)C2 (some centres unmarked) [Compound 2e] | 13600 ± 1040 | 9.3 ± 0.27 | 36.5 ± 0.66 | 373 | 87 | 0.3 | Reduction of binding affinity at the DAT compared to 2a (DAT): around 3 fold
COC(=O)[C@H]1[C@@H](OC(=O)c2ccccc2)C[C@@H]2CC[C@H]1N2C [Cocaine, cocaine, reference compound] | – | – | – | – | – | – | Locomotor activity (mice): ~400 counts per min
Fc1ccc(C(N[C@H]2C[C@H]3CC[C@@H](C2)N3CCCCc2ccccc2)c2ccc(F)cc2)cc1 (as salt: oxalate) [Compound 2j] | – | – | – | – | – | – | melting point: 194 to 196 °C
Fc1ccc(C(N[C@H]2C[C@H]3CC[C@@H](C2)N3)c2ccc(F)cc2)cc1 (as salt: oxalate) [Compound 2g] | – | – | – | – | – | – | melting point: 138 to 140 °C
Fc1ccc(C(N[C@H]2C[C@H]3CC[C@@H](C2)N3)c2ccc(F)cc2)cc1 [Compound 2g] | 4150 ± 368 | 154 ± 19.6 | 8.45 ± 0.23 | 491 | 118 | 18 | –
CN(C(c1ccc(F)cc1)c1ccc(F)cc1)[C@H]1C[C@H]2CC[C@@H](C1)N2C (as salt: oxalate) [Compound 2c] | – | – | – | – | – | – | melting point: 227 to 228 °C
C=CCN1[C@@H]2CC[C@H]1C[C@@H](NC(c1ccc(F)cc1)c1ccc(F)cc1)C2 [Compound 2h] | 3920 ± 581 | 130 ± 10.5 | 26.8 ± 3.43 | 146 | 208 | 5 | –
Fc1ccc(C(N[C@H]2C[C@H]3CC[C@@H](C2)N3CCc2c[nH]c3ccccc23)c2ccc(F)cc2)cc1 (as salt: oxalate) [Compound 2l] | – | – | – | – | – | – | melting point: 178 to 180 °C
CN(C(c1ccc(F)cc1)c1ccc(F)cc1)[C@H]1C[C@H]2CC[C@@H](C1)N2C [Compound 2c] | – | – | 123 ± 15.5 | 140 | 68 | 0.2 | Reduction of binding affinity at the DAT compared to 2a (DAT): 11 fold; Ki (SERT): 17200 ± 2460 nM; Lower binding affinity at the SERT compared to 2a (SERT; lower affinity than 2a): about 2 fold; Lower binding affinity at the NET compared to 2a (NET [1]; lower affinity than 2a): about 5 fold; Ki (muscarinic M1 receptor): 18.6 ± 2.48 nM; Lower binding affinity at the M1 receptor compared to 2a (muscarinic M1 receptor): about 2 fold
